Measurements taken from patent US6969732B2, “Propylisopropyl acetic acid and propylisopropyl acetamide stereoisomers, a method for their synthesis and pharmaceutical compositions containing them” (Yissum Research Development Company of the Hebrew …, priority 1999, dated 2005).
Read-outs that look alike come from different tables or passages of the source. Marks after values point to notes of the source that are not given here.

Tests used:
[1] = Pharmacokinetic studies in mongrel dogs, intravenous injection; assay type: in vivo; conditions: for clearance / MRT / half-life / Vd: mongrel, dog, plasma; for clearance: read-out: CL (clearance) (converted); for MRT: read-out: MRT (Mean Residence Time); for half-life: read-out: t½ (converted); for Vd: iv
Protocol: Pharmacokinetic experiments were carried out on six mongrel dogs weighing 18-25 kg. Dogs were housed in an animal farm and were brought to the lab repeatedly every two-three weeks for crossover experiments after an overnight fast. Each dog was inserted with a urine (Levin's tube, Pennine Healthcare, Derby, UK) and two venous (20G/32 mm Venflon 2, Ohmeda, Helsingborg, Sweden) catheters located on different legs. Dogs were fed with commercial dog food four hours after drug injection, and had free access to water during the whole experiment.
Each dog was intravenously injected with […] (10 mg/kg) of each enantiomer separately or […] of the racemate, dissolved in 2 ml of 96% ethyl alcohol. Venous blood samples (6 ml) were withdrawn via an indwelling catheter from the other leg than used for injection, and transferred into heparinized tubes. The blood samples were centrifuged at 3000 g for 10 minutes, plasma was then separated and stored at […] until analyzed. Blood collection commenced at 5 minutes, and continued up to 12 hours after injection. Urine samples were collected in 1-2 hour intervals beginning at 1 hour and up to 12 hours after injection. The urine volume was recorded and an aliquot was stored at […] until analyzed.
Assay of plasma samples: to test tubes containing 2 μg of the internal standard (diisopropyl acetamide), 0.5 ml of plasma (thawed at room temperature) and 5 ml of tert-butyl methyl ether (TBME) was added. The test tubes were vigorously vortexed for 30 sec and centrifuged at 3000 g for 10 minutes. The organic phase was separated and dried under reduced pressure using a vortex evaporator. Samples were then reconstituted with 150 μl of chloroform and dried under reduced pressure without vortexing. The sample was again reconstituted with 30 μl of chloroform, of which 2 μl were injected into the GC apparatus.
The column used for the chromatographic analysis of PID enantiomers was a Mosandl-methyl capillary column (10 m, 0.25 mm, 0.25 μm) coated with: Heptakis (2,3-di-O-methyl-6-O-tert-butyldimethylsilyl)-β-cyclodextrin as the stationary phase and nitrogen as carrier gas (takeo carbohydr res). Column head pressure was set at 50 KPa, split ratio 1:30, oven temperature 120° C., injector temperature 250° C. and detector temperature 250° C.

NMRI mice = conditions: single 3 mmol/kg subcutaneously in 25% Cremophor EL, day 8 of gestation; for Total Implants: examined day 18
Protocol: Mice of the NMRI strain (Harlan-Winkelmann GmbH, 33176 Borchen, Germany) were kept under controlled conditions: Room temperature (21±1° C.), relative humidity (50±5%), and a 12 hour light-dark cycle with the light period from 10 a.m. to 10 p.m. Females weighing 28 to 36 g were mated with males of the same strain for 3 hours (from 6 a.m. to 9 a.m.). Animals with vaginal plugs were separated, and the following 24 hour period was designated as day 0 of pregnancy. The animals were given free access to food (Altromin 1324 diet, Lage, Germany) and tap water. Approval for the study was obtained from the Department of Health.
Sodium valproate (VPA-Na), racemic PID, (2R)-PID and (2S)-PID were suspended in a 25% Cremophor EL aqueous solution. For another treatment group, VPA-Na was dissolved in distilled water. The pregnant dams were injected with a single 3 mmol/kg subcutaneously dose (10 ml/kg volume administered) on the morning of day 8 of gestation. Mice of the control group were injected with the vehicle, 25% Cremophor EL solution (10 ml/kg volume administered). […] Living fetuses were weighed individually and inspected for the presence of external malformations.

mice [2] = experiment: Maximal electroshock (MES) test in mice; assay type: in vivo; conditions: for MES: intraperitoneal administration
From the text: (§1) Individual enantiomers of PID were screened in mice for their anticonvulsant activity (by the NIH Epilepsy Branch) following intraperitoneal administration to mice by employing a screening procedure which involves: (i) the maximal electoshock (MES) test, which measures seizure spread; (ii) the subcutaneous pentylenetetrazol test sc. Met. Test), which measures seizure threshold; and (iii) the rotorod ataxia test, which assesses neurotoxicity.

mice [3] = experiment: Subcutaneous pentylenetetrazol (sc Met) test in mice; assay type: in vivo; conditions: for sc Met: intraperitoneal administration
From the text: as §1

SWV mice = experiment: Teratogenicity (Finnel) study in SWV mice; conditions: for Implants: examined day 18.5
[4] = enantiomer given in a racemic mixture, 20 mg/kg iv
[5] = given as individual enantiomers, 10 mg/kg iv
[6] = 10 mg/kg, given as individual enantiomers, 10 mg/kg iv, read-out: Vss
[7] = 10 mg/kg, given as individual enantiomers, 10 mg/kg iv, read-out: Vβ (volume of distribution)
[8] = 20 mg/kg, enantiomer given in a racemic mixture, 20 mg/kg iv, read-out: Vss
[9] = SWV mice, single ip 600 mg/kg at day 8.5 of gestation
[10] = ratio (S)-PID to (R)-PID, individual enantiomers, 10 mg/kg iv
[11] = ratio (S)-PID to (R)-PID, racemic mixture, 20 mg/kg iv
[12] = ratio (S)-PID to (R)-PID, mice ip
[13] = SWV mice, single ip 500 mg/kg at day 8.5 of gestation

| SMILES | E (liver extraction ratio) [1, 4] | Vb [1, 4] | fe (fraction excreted unchanged in the urine) [1, 4] | E (liver extraction ratio) [1, 5] | fe (fraction excreted unchanged in the urine) [1, 5] | clearance [1, 4] | MRT [1, 4] | half-life [1, 4] | clearance [1, 5] | MRT [1, 5] | half-life [1, 5] | Vd [1, 6] | Vd [1, 7] | Embryolethality (percent of total implants) (NMRI mice) | Exencephaly (percent of live fetuses) (NMRI mice) | Fetal Weight (NMRI mice) | Live Fetuses (NMRI mice) | Total Implants (NMRI mice) | MES (mice [2]; mice) | sc Met (mice [3]; mice) | other results |
| --- | --- | --- | --- | --- | --- | --- | --- | --- | --- | --- | --- | --- | --- | --- | --- | --- | --- | --- | --- | --- | --- |
| CCC[C@@H](C(N)=O)C(C)C [(R)-PID, (R)-propylisopropyl acetamide] | 12.5 ± 4.0% | 10.2 ± 0.9 L | 0.60 ± 0.45% | 15.0 ± 4.6% | 0.50 ± 0.4% | 100 mL/min | 2.83 ± 0.6 h | 75 ± 18 min | 113 mL/min | 2.57 ± 0.5 h | 82.2 ± 12 min | 16 ± 1.2 L | 13.1 ± 2.2 L | 15.2% | 0 (0) % | 1.16 ± 0.08 g | 78 n | 92 n | 110 | 67 | clearance compared with (2S)-PID ([1]; iv administration): lower clearance; half-life compared with (2S)-PID ([1]; iv administration): longer half-life; Vd [1, 8]: 15.7 ± 1.5 L; anticonvulsant activity compared with (2S)-PID, MES test (mice [2]; mice, i.p. administration): more active and showed better potency than (2S)-PID; anticonvulsant activity compared with (2S)-PID, sc Met test (mice [3]; mice, i.p. administration): more active and showed better potency than (2S)-PID; Live Fetuses (SWV mice; [9]): 120; Resorptior (number) (SWV mice; [9]): 14; Resorptior (percent of total implants) (SWV mice; [9]): 10.4%; Implants (SWV mice; [9]): 134 |
| CCC[C@H](C(N)=O)C(C)C [(S)-PID, (S)-propylisopropyl acetamide] | 12.1 ± 4.1% | 10.4 ± 1.4 L | 0.66 ± 0.46% | 23.7 ± 3.5% | 0.40 ± 0.4% | 100 mL/min | 2.87 ± 0.7 h | 76.2 ± 18 min | 188 mL/min | 1.83 ± 0.3 h | 62.4 ± 6 min | 19.1 ± 2.7 L | 17 ± 2.9 L | 9.4% | 0 (0) % | 1.15 ± 0.09 g | 58 n | 64 n | 145 | 80 | Vd [1, 8]: 15.7 ± 0.9 L; E S/R [1, 10]: 1.58*; Vβ S/R [1, 10]: 1.29; fe S/R [1, 10]: 0.78*; E S/R [1, 11]: 1.0; Vb S/R [1, 11]: 1.0; fe S/R [1, 11]: 1.1; MES S/R (mice [2]; [12]): 1.32; sc Met S/R (mice [3]; [12]): 1.19; maternal lethality (SWV mice; SWV dams, 600 mg/kg ip): several incidences of maternal lethality; Exencephaly (number) (SWV mice; [13]): 1; Exencephaly (percent of live fetuses) (SWV mice; [13]): 0.8%; Live Fetuses (SWV mice; [13]): 123; Resorptior (number) (SWV mice; [13]): 8; Resorptior (percent of total implants) (SWV mice; [13]): 6.1%; Implants (SWV mice; [13]): 131 |
| CCCC(C(N)=O)C(C)C (centres unmarked) [PID, propylisopropyl acetamide] | – | – | – | – | – | – | – | – | – | – | – | – | – | 9.4% | 0 (0) % | 1.21 ± 0.07 g | 87 n | 96 n | 122 | 77 | stereospecificity of kinetics ([1]; enantiomers given individually, FIG. 4): clear stereospecific kinetics; stereospecificity of kinetics ([1]; given in a racemic mixture, FIG. 5): no sterospecifity is observed; Live Fetuses (SWV mice; [9]): 118; Resorptior (number) (SWV mice; [9]): 8; Resorptior (percent of total implants) (SWV mice; [9]): 6.3%; Implants (SWV mice; [9]): 126; Exencephaly (number) (SWV mice; SWV mice, single ip 600 mg/kg at day 8.5 of gestation, 600 mg/kg): 0; Exencephaly (number) (SWV mice; SWV mice, single ip 600 mg/kg at day 8.5 of gestation, listed as racemic, 600 mg/kg): failed to induce exencephaly |
